In ChEMBL document CHEMBL1150673, “Briarellins J-P and polyanthellin A: new eunicellin-based diterpenes from the gorgonian coral Briareum polyanthes and their antimalarial activity” (J Nat Prod, 2003):
In brackets after ≈: the same amount, converted by molar mass. Activity calls are given as the source filed them. The rule behind the calls is not given here.

How the values were obtained:
[1] = system: Plasmodium falciparum; experiment: Antimalarial activity as Plasmodium falciparum DNA by PicoGreen microfluorimetry; assay type: functional, organism-based
[2] = system: Mycobacterium tuberculosis; experiment: Antitubercular activity against Mycobacterium tuberculosis H37Rv at 6.25 ug/ml; assay type: functional, organism-based
[3] = system: MCF; experiment: Cytotoxicity against human MCF cells at 100 uM; assay type: functional, cell-based
[4] = system: SF-268; experiment: Cytotoxicity against human SF268 cells at 100 uM; assay type: functional, cell-based
[5] = molecular target: Cyclin-dependent kinase 1/cyclin B1 (Homo sapiens) (UniProt P06493+P14635); experiment: Inhibition of Cdc2/cyclin B; assay type: protein-complex assay
Sequence of Cyclin-dependent kinase 1/cyclin B1 (Homo sapiens) (P06493 whole entry, looked up): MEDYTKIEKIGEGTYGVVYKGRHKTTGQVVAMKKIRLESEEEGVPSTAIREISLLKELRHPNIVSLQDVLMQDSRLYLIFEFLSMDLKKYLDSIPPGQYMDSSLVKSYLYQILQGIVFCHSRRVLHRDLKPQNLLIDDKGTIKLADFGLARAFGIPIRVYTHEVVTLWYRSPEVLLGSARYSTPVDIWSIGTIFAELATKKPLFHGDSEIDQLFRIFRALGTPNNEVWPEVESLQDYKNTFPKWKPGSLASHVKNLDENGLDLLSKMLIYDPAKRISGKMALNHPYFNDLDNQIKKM
Sequence of Cyclin-dependent kinase 1/cyclin B1 (Homo sapiens) (P14635 whole entry, looked up): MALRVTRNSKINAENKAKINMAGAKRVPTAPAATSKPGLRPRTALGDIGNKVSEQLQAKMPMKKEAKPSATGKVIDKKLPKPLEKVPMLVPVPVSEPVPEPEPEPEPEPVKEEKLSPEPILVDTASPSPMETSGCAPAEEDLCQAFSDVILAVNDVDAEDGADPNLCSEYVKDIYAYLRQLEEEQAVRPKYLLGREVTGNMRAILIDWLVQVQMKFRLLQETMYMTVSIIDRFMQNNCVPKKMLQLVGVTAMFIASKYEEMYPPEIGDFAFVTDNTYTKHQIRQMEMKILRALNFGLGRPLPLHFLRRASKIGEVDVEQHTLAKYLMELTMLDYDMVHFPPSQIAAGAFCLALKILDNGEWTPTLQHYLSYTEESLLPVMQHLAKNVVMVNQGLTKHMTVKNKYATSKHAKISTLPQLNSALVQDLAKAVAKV

[6] = system: M-phase inducer phosphatase (Cdc25); experiment: Inhibition of Cdc25
[7] = system: NCI-H460; experiment: Cytotoxicity against human NCI-H460 cells at 100 uM; assay type: functional, cell-based

SMILES	IC50 [1] [µg/mL]	Activity [2]	further results
C=C1CC2OC3[C@H]4C(CC[C@@](C)(OC(C)=O)[C@@H]24)[C@@H](C)C(=O)O[C@@]3(C)CC[C@H]1OO (some centres not stated) [BRIARELLIN K HYDROPEROXIDE]	9 (≈ 22 µM)	–	–
CCCC(=O)O[C@]1(C)CCC2[C@@H]3C4OC(C[C@@](C)(O)[C@H](O)CC[C@]4(C)OC(=O)[C@@H]2C)[C@@H]31 (some centres not stated) [BRIARELLIN O]	24 (≈ 54.7 µM)	–	–
CC(=O)O[C@@]1(C)CC[C@@H](C(C)C)[C@@H]2C3OC(C[C@@]4(C)CCC[C@]3(C)O4)[C@@H]21 [POLYANTHELLIN A]	16 (≈ 43.9 µM)	inactive	–
CC(=O)O[C@]1(C)CCC2[C@@H]3C4OC(C[C@@](C)(O)[C@H](O)CC[C@]4(C)OC(=O)[C@@H]2C)[C@@H]31 (some centres not stated) [BRIARELLIN M]	22 (≈ 53.6 µM)	–	–
C=C1CC2OC3[C@H]4C(CC[C@@](C)(OC(C)=O)[C@@H]24)[C@@H](C)C(=O)O[C@@]3(C)CC[C@H]1O (some centres not stated) [BRIARELLIN K]	15 (≈ 38.2 µM)	inactive	Activity [3]: inactive; Activity [4]: inactive; Activity [5]: inactive; Activity [6]: inactive; Activity [7]: inactive
C=C1CC2OC3[C@H]4C(CC[C@@](C)(OC(=O)CCC)[C@@H]24)[C@@H](C)C(=O)O[C@@]3(C)CC[C@H]1OC(C)=O (some centres not stated) [BRIARELLIN L]	8 (≈ 17.3 µM)	–	–
CO[C@@H]1CC[C@]2(C)OC(=O)[C@H](C)C3CC[C@@](C)(OC(C)=O)[C@H]4C(C[C@@]1(C)O)OC2[C@@H]34 (some centres not stated)	–	inactive	Activity [5]: inactive; Activity [6]: inactive
CCCC(=O)O[C@]1(C)CCC2[C@@H]3C4OC(C[C@@](C)(O)[C@H](OC)CC[C@]4(C)OC(=O)[C@@H]2C)[C@@H]31 (some centres not stated) [BRIARELLIN P]	14 (≈ 30.9 µM)	–	–
CC(C)[C@@H]1CC[C@](C)(O)[C@H]2C3C[C@@]4(C)CCC[C@](C)(O4)C(O3)[C@@H]12	16 (≈ 49.6 µM)	–	–
C=C1CC2OC3[C@H]4C(CC[C@@](C)(OC(=O)CCC)[C@@H]24)[C@@H](C)C(=O)O[C@@]3(C)CC[C@H]1O (some centres not stated) [BRIARELLIN D]	13 (≈ 30.9 µM)	inactive	Activity [3]: inactive; Activity [4]: inactive; Activity [5]: inactive; Activity [6]: inactive; Activity [7]: inactive
CC(=O)O[C@]1(C)CCC2[C@@H]3C4OC(C/C(C)=C\CC[C@]4(C)OC(=O)[C@@H]2C)[C@@H]31 (some centres not stated) [BRIARELLIN J]	> 50	–	–
C=C1CC2OC3[C@H]4C(CC[C@@](C)(OC(=O)CCC)[C@@H]24)[C@@H](C)C(=O)O[C@@]3(C)CC[C@H]1OO (some centres not stated) [BRIARELLIN D HYDROPEROXIDE]	9 (≈ 20.6 µM)	–	–
